Here are results for 27 compounds from patent US20230065799A1, “METHOD FOR ATTRIBUTING OLFACTORY TONALITIES TO OLFACTORY RECEPTOR ACTIVATION AND METHODS FOR IDENTIFYING COMPOUNDS HAVING THE ATTRIBUTED TONALITIES” (FIRMENICH SA, priority 2019, published 2023).

Experiment [1] deals with T1, OR5AN1 (Homo sapiens, UniProt Q8NGI8).
T1 construct: Lucy (cleavable signal peptide) (N); FLAG (N); Rho (first 20 aa of bovine rhodopsin) (N); expressed in transfected cells
T1 sequence (Q8NGI8 1-311): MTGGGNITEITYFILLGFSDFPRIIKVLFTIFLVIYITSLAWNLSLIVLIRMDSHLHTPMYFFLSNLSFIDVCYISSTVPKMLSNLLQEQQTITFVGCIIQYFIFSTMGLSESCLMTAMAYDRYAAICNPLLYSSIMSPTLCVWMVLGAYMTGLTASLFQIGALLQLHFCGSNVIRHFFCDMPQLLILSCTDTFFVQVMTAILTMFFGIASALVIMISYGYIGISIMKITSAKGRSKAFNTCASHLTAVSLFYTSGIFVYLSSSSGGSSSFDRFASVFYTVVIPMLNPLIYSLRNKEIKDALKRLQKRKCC
Kind of experiment: OR5AN1 cell-based cAMP HTRF assay. The conditions noted are these: for Emax: read-out: OR5AN1 % Efficacy.

In experiment [2] the target is T2, OR1N2 (Homo sapiens, UniProt Q8NGR9, T287M/V230G/W23R).
T2 construct: Lucy (cleavable signal peptide) (N); FLAG (N); Rho (first 20 aa of bovine rhodopsin) (N); expressed in transfected cells
T2 sequence (Q8NGR9 1-316 W23R/V230G/T287M): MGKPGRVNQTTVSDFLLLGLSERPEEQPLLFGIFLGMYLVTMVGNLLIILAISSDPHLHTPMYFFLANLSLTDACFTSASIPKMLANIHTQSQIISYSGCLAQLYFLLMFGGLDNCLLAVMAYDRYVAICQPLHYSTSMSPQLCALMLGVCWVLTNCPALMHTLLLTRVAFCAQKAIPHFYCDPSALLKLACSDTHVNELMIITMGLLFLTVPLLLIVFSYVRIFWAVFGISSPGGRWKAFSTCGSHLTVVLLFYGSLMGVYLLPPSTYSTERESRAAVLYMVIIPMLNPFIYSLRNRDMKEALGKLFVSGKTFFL
Kind of experiment: OR1N2 cell-based cAMP HTRF assay. The settings on record: read-out: OR1N2 % Efficacy.

Experiment [3] addresses T3, OR5A1 (Homo sapiens, UniProt Q8NGJ0).
T3 construct: Lucy (cleavable signal peptide) (N); FLAG (N); Rho (first 20 aa of bovine rhodopsin) (N); expressed in transfected cells
T3 sequence (Q8NGJ0 1-315): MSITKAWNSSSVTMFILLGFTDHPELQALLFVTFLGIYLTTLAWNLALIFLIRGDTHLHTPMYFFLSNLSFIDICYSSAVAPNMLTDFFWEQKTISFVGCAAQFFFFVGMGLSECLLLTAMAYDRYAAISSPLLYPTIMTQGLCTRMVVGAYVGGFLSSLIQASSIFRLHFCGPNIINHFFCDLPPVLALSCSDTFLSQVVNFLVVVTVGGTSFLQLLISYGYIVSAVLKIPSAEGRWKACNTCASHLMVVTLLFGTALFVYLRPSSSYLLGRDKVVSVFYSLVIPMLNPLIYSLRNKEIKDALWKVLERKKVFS
In words: OR5A1 cell-based cAMP HTRF assay. The settings on record: for Emax: dose-response, 100% = full agonist, read-out: OR5A1 % Efficacy. On the technique in general: Time-resolved FRET reads energy transfer from a long-lived donor to a nearby acceptor.

In experiment [4] the target is T4, OR7A17 (Homo sapiens, UniProt O14581).
T4 construct: Lucy (cleavable signal peptide) (N); FLAG (N); Rho (first 20 aa of bovine rhodopsin) (N); expressed in transfected cells
T4 sequence (O14581 1-309): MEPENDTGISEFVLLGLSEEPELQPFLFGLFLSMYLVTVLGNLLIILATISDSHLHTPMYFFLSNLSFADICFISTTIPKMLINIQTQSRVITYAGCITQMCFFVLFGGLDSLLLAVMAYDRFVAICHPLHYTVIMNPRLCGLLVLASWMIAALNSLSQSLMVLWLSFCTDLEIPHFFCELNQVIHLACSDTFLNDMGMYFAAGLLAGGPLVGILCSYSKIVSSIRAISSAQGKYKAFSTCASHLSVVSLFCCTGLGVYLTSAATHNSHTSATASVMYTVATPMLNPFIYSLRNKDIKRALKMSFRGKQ
Kind of experiment: OR7A17 cell-based cAMP HTRF assay. The settings on record: FIG. 1.

Experiment [5] concerns the target T5, OR8D1 (Homo sapiens, UniProt Q8WZ84).
T5 construct: Lucy (cleavable signal peptide) (N); FLAG (N); Rho (first 20 aa of bovine rhodopsin) (N); expressed in transfected cells
T5 sequence (Q8WZ84 1-308): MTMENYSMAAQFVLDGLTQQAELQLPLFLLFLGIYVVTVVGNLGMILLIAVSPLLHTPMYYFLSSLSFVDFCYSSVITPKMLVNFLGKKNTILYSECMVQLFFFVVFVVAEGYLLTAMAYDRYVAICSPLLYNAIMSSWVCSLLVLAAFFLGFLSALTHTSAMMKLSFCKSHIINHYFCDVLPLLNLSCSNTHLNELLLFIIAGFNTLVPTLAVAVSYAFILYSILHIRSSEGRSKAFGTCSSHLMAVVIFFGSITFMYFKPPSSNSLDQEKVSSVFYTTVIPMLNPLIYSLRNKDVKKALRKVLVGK
In words: OR8D1 cell-based cAMP HTRF assay. The settings on record: dose-response, 100% = full agonist; for Emax: read-out: OR8D1 % Efficacy.

In experiment [6] the target is T6, OR1C1 (Homo sapiens, UniProt Q15619).
T6 construct: Lucy (cleavable signal peptide) (N); FLAG (N); Rho (first 20 aa of bovine rhodopsin) (N); expressed in transfected cells
T6 sequence (Q15619 1-314): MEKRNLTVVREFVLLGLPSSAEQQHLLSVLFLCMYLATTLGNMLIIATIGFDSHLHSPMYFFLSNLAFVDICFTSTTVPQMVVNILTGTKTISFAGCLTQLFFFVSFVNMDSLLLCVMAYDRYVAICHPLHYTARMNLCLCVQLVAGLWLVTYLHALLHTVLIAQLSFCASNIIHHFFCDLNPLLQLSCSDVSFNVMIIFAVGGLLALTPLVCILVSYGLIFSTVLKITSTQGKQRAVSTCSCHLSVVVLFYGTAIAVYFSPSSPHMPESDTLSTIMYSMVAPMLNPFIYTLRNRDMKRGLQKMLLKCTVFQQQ
In words: OR1C1 cell-based cAMP HTRF assay. The conditions noted are these: dose-response; 100% = full agonist; read-out: OR1C1 % Efficacy.

Experiment [7] deals with T7, OR10J5 (Homo sapiens, UniProt Q8NHC4).
T7 construct: Lucy (cleavable signal peptide) (N); FLAG (N); Rho (first 20 aa of bovine rhodopsin) (N); expressed in transfected cells
T7 sequence (Q8NHC4 1-309): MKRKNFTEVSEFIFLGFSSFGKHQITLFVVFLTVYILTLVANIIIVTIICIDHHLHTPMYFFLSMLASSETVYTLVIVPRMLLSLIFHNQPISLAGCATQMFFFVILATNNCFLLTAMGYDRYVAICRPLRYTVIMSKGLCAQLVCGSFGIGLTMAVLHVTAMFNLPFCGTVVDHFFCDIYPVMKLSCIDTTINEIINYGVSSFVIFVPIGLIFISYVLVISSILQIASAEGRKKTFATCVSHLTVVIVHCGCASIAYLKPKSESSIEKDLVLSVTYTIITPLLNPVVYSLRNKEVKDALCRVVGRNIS
Kind of experiment: OR10J5 cell-based cAMP HTRF assay. The settings on record: for Emax: read-out: OR10J5 % Efficacy.

For experiment [8], the target named is T8, OR5B12 (Homo sapiens, UniProt Q96R08).
T8 construct: Lucy (cleavable signal peptide) (N); FLAG (N); Rho (first 20 aa of bovine rhodopsin) (N); expressed in transfected cells
T8 sequence (Q96R08 1-314): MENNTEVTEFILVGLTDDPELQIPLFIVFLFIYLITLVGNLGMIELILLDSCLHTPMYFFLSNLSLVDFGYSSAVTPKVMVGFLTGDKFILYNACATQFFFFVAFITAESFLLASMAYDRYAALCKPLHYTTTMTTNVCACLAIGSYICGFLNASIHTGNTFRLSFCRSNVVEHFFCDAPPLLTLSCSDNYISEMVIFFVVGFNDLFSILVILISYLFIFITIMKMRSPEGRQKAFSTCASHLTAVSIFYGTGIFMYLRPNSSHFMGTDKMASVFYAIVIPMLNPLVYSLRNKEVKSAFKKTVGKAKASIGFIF
Kind of experiment: OR5B12 cell-based cAMP HTRF assay. The conditions noted are these: dose-response; 100% = full agonist.

Where [9] appears, read: dose-response, 100% = full agonist.

Read-outs that look alike come from different tables or passages of the source.

Take “3-methylcyclopentadec-4-en-1-one; 3-methylcyclopentadec-5-en-1-one [Muscenone delta]”: the “OR5AN1 % Efficacy” value in experiment [1] (setting [9]) was determined as 86%. `O=C1CCCCCCCC=CCCCCCCO1` [Ambrettolide, 1-oxacycloheptadec-10-en-2-one]: the Emax in experiment [2] (setting [9]) worked out at 100%. Same read-out and setting: the same measure for `O=C1CCCCCCCCCCCC(=O)OCCO1` [Astrotone, 1,4-dioxacycloheptadecane-5,17-dione]: 59%. In the case of `CC(=O)C=CC1=C(C)CCCC1(C)C` [Beta-ionone, 4-(2,6,6-trimethylcyclohexen-1-yl)but-3-en-2-one], in experiment [3] (FIG. 1), the “activation of OR5A1 (violet tonality)” value is on record as “activation”. In experiment [3], the Emax worked out at 100%. Besides, the “activation of OR7A17 (blonde woody tonality)” value in experiment [4] is “activation”. On to `CCCC1CC(=O)C=C(C)C1` (centres unmarked) [Celery ketone, 3-methyl-5-propylcyclohex-2-en-1-one], for which the Emax in experiment [5] came out at 76%. On to `O=C1CCCCCCCC=CCCCCCCC1` [Civetone, cycloheptadec-9-en-1-one], for which the Emax in experiment [2] worked out at 94%.

Regarding `CC1=C(O)C(=O)CC1` [Cyclotone, 2-hydroxy-3-methylcyclopent-2-en-1-one], the Emax in experiment [5] worked out at 97%. As for `C=CC(C)(O)CCCC(C)C` (centres unmarked) [Dihydrolinalool, 3,7-dimethyloct-1-en-3-ol], the Emax in experiment [6] amounted to 95%. Still for that read-out and setting: with `C=CC(C)(O)CCC=C(C)CC` (centres unmarked) [Ethyl Linalool, 3,7-dimethylnona-1,6-dien-3-ol] the figure was 99%.

Consider `O=C1CCC=CCCCCCCCCCC1` [Exaltenone, cyclopentadec-4-en-1-one], for which, in experiment [1] (setting [9]), the Emax was determined as 86%. In the case of `CC(C)CC1CC(C)(O)CCO1` (centres unmarked) [Florol, 4-methyl-2-(2-methylpropyl)oxan-4-ol], in experiment [7] (setting [9]), the Emax was 40%.

Consider `CCCCC[C@@H]1C(=O)CC[C@@H]1CC(=O)OC` [Hedione, methyl 2-[(1~{R},2~{S})-3-oxo-2-pentylcyclopentyl]acetate], for which, in experiment [8], the “OR5B12 % Efficacy” value is listed as 86%. For `CC(=O)C=CC1=C(C)CCC(C)C1(C)C` (stereo not drawn) [Irone beta, 4-(2,5,6,6-tetramethylcyclohexen-1-yl)but-3-en-2-one], in experiment [3], the Emax turned out to be 91%. With `Cc1ccc2c(c1)CC(C)(CO)C2` (centres unmarked) [Lilyflore, (2,5-dimethyl-1,3-dihydroinden-2-yl)methanol], in experiment [7] (setting [9]), the Emax is 58%. `C=CC(C)(O)CCC=C(C)C` (centres unmarked) [Linalool, 3,7-dimethylocta-1,6-dien-3-ol]: the Emax in experiment [6] is 100%. With `CC(C)(O)CCCC1=CCC(C=O)CC1` (centres unmarked) [Lyral, 3-(4-hydroxy-4-methylpentyl)cyclohex-3-ene-1-carbaldehyde; 4-(4-hydroxy-4-methylpentyl)cyclohex-3-ene-1-carbaldehyde], the Emax in experiment [7] is 100%. Turning to `CC(=CCCC=O)CCCC(C)(C)O` [Mahonial, 9-hydroxy-5,9-dimethyldec-4-enal], in experiment [7] (setting [9]), the Emax was determined as 96%. In the case of `CCC1OC(=O)C(O)=C1C` (centres unmarked) [Maple Furanone, 2-ethyl-4-hydroxy-3-methyl-2~{H}-furan-5-one], the “OR8D1 % Efficacy” value in experiment [5] worked out at 100%.

Take `CCC(=O)C=CC1=C(C)CCCC1(C)C` [Methylionone beta, 1-(2,6,6-trimethylcyclohexen-1-yl)pent-1-en-3-one]: the Emax in experiment [3] came to 82%.

Consider `C[C@@H]1CCCCCCCCCCCCC(=O)C1` [Muscone, (R)-3-methylcyclopentadecanone], for which the Emax in experiment [1] (setting [9]) turned out to be 75%.

With `CC(=O)c1c(C)c([N+](=O)[O-])c(C(C)(C)C)c([N+](=O)[O-])c1C` [Musk ketone, 1-(4-~{tert}-butyl-2,6-dimethyl-3,5-dinitrophenyl)ethanone], the Emax in experiment [1] (setting [9]) was determined as 100%.

`Cc1c([N+](=O)[O-])c(C)c([N+](=O)[O-])c(C(C)(C)C)c1[N+](=O)[O-]` [Musk xylol, 1-~{tert}-butyl-3,5-dimethyl-2,4,6-trinitrobenzene]: in experiment [1], the “OR5AN1 % Efficacy” value was determined as 97%. As to `CCC=C1OC(=O)c2ccccc21` [Propylidene phthalide, 3-propylidene-2-benzofuran-1-one], the Emax in experiment [5] came to 80%. Turning to `CC1=C(O)C(=O)OC1C` (centres unmarked) [Sotolone, 4-hydroxy-2,3-dimethyl-2~{H}-furan-5-one], the “OR8D1 % Efficacy” value in experiment [5] was found to be 100%. In the case of `CCC(C)(O)CCCC(C)C` (centres unmarked) [Tetralinol, 3,7-dimethyloctan-3-ol], the Emax in experiment [6] was determined as 79%. Take “methyl 2-[(1~{S},2~{S})-3-oxo-2-pentylcyclopentyl]acetate; methyl 2-[(1~{R},2~{S})-3-oxo-2-pentylcy clopentyl]acetate [Jasmodione]”: the “OR5B12 % Efficacy” value in experiment [8] came out at 98%. “methyl 2-[[3-(4-hydroxy-4-methylpentyl)cyclohex-3-en-1-ylidene]methylamino]benzoate; methyl 2-[[4-(4-hydroxy-4-methylpentyl)cyclohex-3 -en-1-ylidene]methylamino]benzoate [Lyronol 50 dipg]”: the “OR10J5 % Efficacy” value in experiment [7] (setting [9]) stood at 100%.
